# Test results taken from BindingDB's records for doi:10.1016/s0960-894x(01)00246-3 (Rohm and Haas, 2001).
# Target: Tubulin alpha/beta (Bos taurus)
# Experiment: Inhibition of Bos taurus (bovine) brain tubulin polymerization
row,Structure (SMILES),EC50
1,"COc1cccc([C@@H]2CC=CC[C@H]2[N+](=O)[O-])c1 [1-Methoxy-3-((1S,6R)-6-nitro-cyclohex-3-enyl)-benzene]",> 100 µM
2,"COc1ccc(-c2ccccc2C#N)c(OC)c1OC [2',3',4'-Trimethoxy-biphenyl-2-carbonitrile]",50 µM
3,"COc1ccc(-c2ccc(OC)c(OC)c2OC)c(C)c1 [2,3,4,4'-Tetramethoxy-2'-methyl-biphenyl]",6.25 µM
4,"COc1ccc(-c2ccc(OC)c(OC)c2OC)c([N+](=O)[O-])c1 [2,3,4,4'-Tetramethoxy-2'-nitro-biphenyl]",6.25 µM
5,"COc1ccc(-c2ccc(OC)c(OC)c2OC)cc1 [2,3,4,4'-Tetramethoxy-biphenyl]",6.25 µM
6,"COc1ccc(-c2ccccc2[N+](=O)[O-])c(OC)c1OC [2,3,4-Trimethoxy-2'-nitro-biphenyl]",> 100 µM
7,"COc1ccc(-c2ccc(OC)c(OC)c2OC)c(C#N)c1 [4,2',3',4'-Tetramethoxy-biphenyl-2-carbonitrile]",6.25 µM
8,"COc1ccc(C2CC=CCC2C#N)c(OC)c1OC (centres undefined) [6-(2,3,4-Trimethoxy-phenyl)-cyclohex-3-enecarbonitrile]",> 100 µM
9,"O=[N+]([O-])[C@@H]1CC=CC[C@H]1c1ccccc1 [((1S,6R)-6-Nitro-cyclohex-3-enyl)-benzene]",> 100 µM
